In US11414431B2, “Substituted pyrazolo[1,5-a]pyrimidines as TYK2 inhibitors” (Nimbus Lakshmi, Inc., priority 2018, dated 2022):

Each molecule was assayed against human TYK2 (JH2domain-pseudokinase) (Homo sapiens (Human), UniProt P29597) (assay: TYK2 JH2 Domain Binding Assay (KINOMEscan)). Details: 11-point 3-fold dilution, top concentration 30,000 nM, duplicate; read-out: hTYK2_JH2_Binding (Kd; nM).
Protocol: Binding constants for compounds of the present invention against the JH2 domain were determined by the following protocol for a KINOMEscan® assay (DiscoveRx). A fusion protein of a partial length construct of human TYK2 (JH2domain-pseudokinase) (amino acids G556 to D888 based on reference sequence NP_003322.3) and the DNA binding domain of NFkB was expressed in transiently transfected HEK293 cells. From these HEK 293 cells, extracts were prepared in M-PER extraction buffer (Pierce) in the presence of Protease Inhibitor Cocktail Complete (Roche) and Phosphatase Inhibitor Cocktail Set II (Merck) per manufacturers' instructions. The TYK2(JH2domain-pseudokinase) fusion protein was labeled with a chimeric double-stranded DNA tag containing the NFkB binding site (5′-[…]-3′) fused to an amplicon for qPCR readout, which was added directly to the expression extract (the final concentration of DNA-tag in the binding reaction is 0.1 nM).
The liganded beads were blocked with excess biotin and washed with blocking buffer (SeaBlock (Pierce), 1% BSA, 0.05% Tween 20, 1 mM DTT) to remove unbound ligand and to reduce nonspecific binding.
Extracts were loaded with DNA-tag and diluted into the binding reaction in a two step process. First extracts were diluted 1:100 in 1× binding buffer (PBS/0.05% Tween 20/10 mM DTT/0.1% BSA/2 μg/ml sonicated salmon sperm DNA) containing 10 nM DNA-tag. This dilution was allowed to equilibrate at room temperature for 15 minutes and then subsequently diluted 1:100 in 1× binding buffer. […] Kds were determined using an 11-point 3-fold compound dilution series with three DMSO control points. […] The compounds were then diluted directly into the assays such that the final concentration of DMSO was 0.9%. All reactions performed in polypropylene 384-well plates. Each was a final volume of 0.02 mL. Assays were incubated with shaking for 1 hour at room temperature. Then the beads were pelleted and washed with wash buffer (lx PBS, 0.05% Tween 20) to remove displaced kinase and test compound. […] The qPCR protocol consisted of a 10 minute hot start at 95° C., followed by 35 cycles of 95° C. for 15 seconds, 60° C. for 1 minute.
Kds were determined using an 11-point 3-fold compound dilution series with three DMSO control points. […] The compounds were then diluted directly into the assays such that the final concentration of DMSO was 0.9%. The Kds were determined using a compound top concentration of 30,000 nM. Kd measurements were performed in duplicate.
Binding constants (Kds) were calculated with a standard dose-response curve using the Hill equation: […]
The Hill Slope was set to −1.

human TYK2 (JH2domain-pseudokinase), sequence (P29597 556-888): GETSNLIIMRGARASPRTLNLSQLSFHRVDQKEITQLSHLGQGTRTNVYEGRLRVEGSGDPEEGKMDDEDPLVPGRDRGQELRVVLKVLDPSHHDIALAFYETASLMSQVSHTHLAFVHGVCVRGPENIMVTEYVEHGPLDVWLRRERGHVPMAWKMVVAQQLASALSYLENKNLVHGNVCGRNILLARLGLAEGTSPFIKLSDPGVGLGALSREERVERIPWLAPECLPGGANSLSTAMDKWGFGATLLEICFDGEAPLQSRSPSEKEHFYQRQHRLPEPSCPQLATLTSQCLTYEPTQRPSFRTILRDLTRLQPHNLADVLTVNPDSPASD

How did the Kd turn out when `CNc1cc(Nc2cccn([C@@H]3C[C@H]3F)c2=O)nc2c(C(=O)N[C@H]3CC[C@@H]3OC)cnn12` [Compound I-52, 5-((1-((1R,2R)-2-Fluorocyclopropyl)-2-oxo-1,2-dihydropyridin-3-yl)amino)-N-((1S,2S)-2-methoxycyclobutyl)-7-(methylamino)pyrazolo[1,5-a]pyrimidine-3-carboxamide] was run?
Its Kd is 0.2 to 1 nM.

How did the Kd turn out when `CNc1cc(Nc2cccn([C@H]3CC[C@H]3O)c2=O)nc2c(C(=O)N[C@H]3CC[C@H](OC)C3)cnn12` [Compound I-86, 5-((1-((1S,2R)-2-Hydroxycyclobutyl)-2-oxo-1,2-dihydropyridin-3-yl)amino)-N-((1S,3S)-3-methoxycyclopentyl)-7-(methylamino)pyrazolo[1,5-a]pyrimidine-3-carboxamide] was run?
Its Kd is 1 to 10 nM.

Which Kd does the source give for `O=C(NC1CC1)c1cnn2c3c(c(Nc4cccc5ocnc45)nc12)OCCN3` [Compound I-749] here?
Its Kd is less than 0.2 nM.

Which Kd does the source give for `CNc1cc(-c2cnc3n([C@@H]4COC[C@H]4OC)cccc2-3)nc2c(C(=O)N[C@@H]3C[C@@H]3F)cnn12` [Compound I-822] here?
The Kd was less than 0.2 nM.

With `CNc1cc(Nc2cccn([C@H]3C[C@@H](OC)C3)c2=O)nc2c(C(=O)N[C@@H]3C[C@@H]3F)cnn12` [Compound I-9, N-((1R,2S)-2-Fluorocyclopropyl)-5-((1-((1s,3S)-3-methoxycyclobutyl)-2-oxo-1,2-dihydropyridin-3-yl)amino)-7-(methylamino)pyrazolo[1,5-a]pyrimidine-3-carboxamide] as the molecule, how does the Kd read?
Its Kd is less than 0.2 nM.

How did the Kd turn out when `O=C(NC1CC1)c1cnn2c3c(c(Nc4cccn(C5CCOCC5)c4=O)nc12)OCCN3` [Compound I-748] was run?
The Kd was less than 0.2 nM.

Which Kd does the source give for `CNc1cc(Nc2cccn(C3CC(F)(F)C3)c2=O)nc2c(C(=O)N[C@@H]3CC[C@@H](OC)C3)cnn12` [Compound I-72, 5-((1-(3,3-Difluorocyclobutyl)-2-oxo-1,2-dihydropyridin-3-yl)amino)-N-((1R,3R)-3-methoxycyclopentyl)-7-(methylamino)pyrazolo[1,5-a]pyrimidine-3-carboxamide] here?
Its Kd is 1 to 10 nM.

With `CNc1cc(Nc2cccn([C@H]3C[C@@H](OC)C3)c2=O)nc2c(C(=O)NC3CC3)cnn12` [Compound I-5, N-Cyclopropyl-5-((1-((1s,3s)-3-methoxycyclobutyl)-2-oxo-1,2-dihydropyridin-3-yl)amino)-7-(methylamino)pyrazolo[1,5-a]pyrimidine-3-carboxamide] as the molecule, how does the Kd read?
Its Kd is less than 0.2 nM.

Which Kd does the source give for `CNc1cc(Nc2cccn([C@H]3CC[C@H]3O)c2=O)nc2c(C(=O)N[C@@H]3CC[C@@H](OC)C3)cnn12` [Compound I-85, 5-((1-((1S,2R)-2-Hydroxycyclobutyl)-2-oxo-1,2-dihydropyridin-3-yl)amino)-N-((1R,3R)-3-methoxycyclopentyl)-7-(methylamino)pyrazolo[1,5-a]pyrimidine-3-carboxamide] here?
Its Kd is 1 to 10 nM.

For `CNc1cc(Nc2cccn(C3CC(F)(F)C3)c2=O)nc2c(C(=O)N[C@H]3CC[C@H](OC)C3)cnn12` [Compound I-73, 5-((1-(3,3-Difluorocyclobutyl)-2-oxo-1,2-dihydropyridin-3-yl)amino)-N-((1S,3S)-3-methoxycyclopentyl)-7-(methylamino)pyrazolo[1,5-a]pyrimidine-3-carboxamide], which Kd is on record?
Its Kd is 1 to 10 nM.

`CNc1cc(Nc2cccn([C@@H]3CC[C@@H]3O)c2=O)nc2c(C(=O)N[C@@H]3CCC[C@@H](OC)C3)cnn12` [Compound I-99, 5-((1-((1R,2S)-2-Hydroxycyclobutyl)-2-oxo-1,2-dihydropyridin-3-yl)amino)-N-((1R,3R)-3-methoxycyclohexyl)-7-(methylamino)pyrazolo[1,5-a]pyrimidine-3-carboxamide] was tested. Which Kd did it give?
Its Kd is 0.2 to 1 nM.

`CNc1cc(Nc2cccn(C(C)C)c2=O)nc2c(C(=O)N[C@H]3CC[C@]3(C)O)cnn12` [Compound I-340] was tested. Which Kd did it give?
Its Kd is less than 0.2 nM.

`CNc1cc(Nc2cccn(C3CC(F)(F)C3)c2=O)nc2c(C(=O)N[C@@H]3CCC[C@@]3(C)O)cnn12` [Compound I-91, 5-((1-(3,3-Difluorocyclobutyl)-2-oxo-1,2-dihydropyridin-3-yl)amino)-N-((1R,2R)-2-hydroxy-2-methylcyclopentyl)-7-(methylamino)pyrazolo[1,5-a]pyrimidine-3-carboxamide] was tested. Which Kd did it give?
The Kd was less than 0.2 nM.

`CNc1cc(-c2cn([C@H]3CCOC[C@@H]3O)c3ncccc23)nc2c(C(=O)N[C@@H]3C[C@@H]3F)cnn12` [Compound I-506] was tested. Which Kd did it give?
Its Kd is less than 0.2 nM.

How did the Kd turn out when `CNc1cc(-c2cn([C@H]3CCCOC3)c3ncccc23)nc2c(C(=O)N[C@H]3COC[C@H]3O)cnn12` [Compound I-60, N-((3S,4S)-4-Hydroxytetrahydrofuran-3-yl)-7-(methylamino)-5-(1-((S)-tetrahydro-2H-pyran-3-yl)-1H-pyrrolo[2,3-b]pyridin-3-yl)pyrazolo[1,5-a]pyrimidine-3-carboxamide] was run?
The Kd was less than 0.2 nM.

How did the Kd turn out when `CC(C)n1cc(-c2nc3c(C(=O)N[C@@H]4CC[C@@H]4O)cnn3c3c2OCCN3)c2cccnc21` [Compound I-755] was run?
Its Kd is less than 0.2 nM.

`CNc1cc(Nc2cccn(C3CCOCC3)c2=O)nc2c(C(=O)N[C@@H]3C[C@H]3OC)cnn12` [Compound I-27, N-((1R,2R)-2-Methoxycyclopropyl)-7-(methylamino)-5-((2-oxo-1-(tetrahydro-2H-pyran-4-yl)-1,2-dihydropyridin-3-yl)amino)pyrazolo[1,5-a]pyrimidine-3-carboxamide] was tested. Which Kd did it give?
Its Kd is less than 0.2 nM.

`CNc1cc(Nc2cccn(-c3ccccn3)c2=O)nc2c(C(=O)N[C@H]3C[C@H]3F)cnn12` [Compound I-127] was tested. Which Kd did it give?
Its Kd is less than 0.2 nM.

How did the Kd turn out when `CNc1cc(Nc2cccn(C(C)C)c2=O)nc2c(C(=O)N[C@H]3C[C@@H]3OC)cnn12` [Compound I-30, 5-((1-Isopropyl-2-oxo-1,2-dihydropyridin-3-yl)amino)-N-((1S,2S)-2-methoxycyclopropyl)-7-(methylamino)pyrazolo[1,5-a]pyrimidine-3-carboxamide] was run?
Its Kd is 0.2 to 1 nM.

How did the Kd turn out when `CO[C@@H]1CC[C@H]1NC(=O)c1cnn2c3c(c(Nc4cccn([C@H]5[C@@H]6COC[C@@H]65)c4=O)nc12)OCCN3` [Compound I-763] was run?
Its Kd is greater than 10 nM.

`CNc1cc(-c2cnc3n(CC(=O)N(C)C)cccc2-3)nc2c(C(=O)NC3CC[C@@H]3OC)cnn12` (stereo partly drawn) [Compound I-961] was tested. Which Kd did it give?
The Kd was less than 0.2 nM.

For `CNc1cc(Nc2cccn(C3CC(F)(F)C3)c2=O)nc2c(C(=O)N[C@@H]3CCC[C@@](C)(O)C3)cnn12` [Compound I-92, 5-((1-(3,3-Difluorocyclobutyl)-2-oxo-1,2-dihydropyridin-3-yl)amino)-N-((1R,3R)-3-hydroxy-3-methylcyclohexyl)-7-(methylamino)pyrazolo[1,5-a]pyrimidine-3-carboxamide], which Kd is on record?
Its Kd is greater than 10 nM.

For `CNc1cc(-c2cn([C@H]3CCCOC3)c3ncccc23)nc2c(C(=O)N[C@@H]3COC[C@@H]3O)cnn12` [Compound I-61, N-((3R,4R)-4-Hydroxytetrahydrofuran-3-yl)-7-(methylamino)-5-(1-((S)-tetrahydro-2H-pyran-3-yl)-1H-pyrrolo[2,3-b]pyridin-3-yl)pyrazolo[1,5-a]pyrimidine-3-carboxamide], which Kd is on record?
Its Kd is 1 to 10 nM.

For `CNc1cc(-c2cn(CCN3CCOCC3)c3ncccc23)nc2c(C(=O)N[C@H]3CC[C@@H]3OC)cnn12` [Compound I-54, N-((1S,2S)-2-Methoxycyclobutyl)-7-(methylamino)-5-(1-(2-morpholinoethyl)-1H-pyrrolo[2,3-b]pyridin-3-yl)pyrazolo[1,5-a]pyrimidine-3-carboxamide], which Kd is on record?
Its Kd is less than 0.2 nM.

How did the Kd turn out when `CNc1cc(-c2cn([C@H]3CCOC[C@@H]3O)c3ncccc23)nc2c(C(=O)NC3CC3)cnn12` [Compound I-498] was run?
The Kd was less than 0.2 nM.

How did the Kd turn out when `CNc1cc(Nc2cccn([C@H]3C[C@H](F)C3)c2=O)nc2c(C(=O)N[C@@H]3C[C@H]3OC)cnn12` [Compound I-137] was run?
Its Kd is less than 0.2 nM.

How did the Kd turn out when `CNc1cc(-c2cn([C@H]3COC[C@@H]3O)c3ncccc23)nc2c(C(=O)NC3CC3)cnn12` [Compound I-496] was run?
Its Kd is less than 0.2 nM.

With `CO[C@@H]1CCC1NC(=O)c1cnn2c(N)cc(Nc3cccn(-c4ccccn4)c3=O)nc12` (stereo partly drawn) [Compound I-245, 7-Amino-N-((trans-1,2)-2-methoxycyclobutyl)-5-((2-oxo-2H-[1,2′-bipyridin]-3-yl)amino)pyrazolo[1,5-a]pyrimidine-3-carboxamide] as the molecule, how does the Kd read?
The Kd was less than 0.2 nM.

`CNc1cc(Nc2cccn([C@@H]3CC[C@@H]3O)c2=O)nc2c(C(=O)N[C@H]3CC[C@H](OC)C3)cnn12` [Compound I-82, 5-((1-((1R,2S)-2-Hydroxycyclobutyl)-2-oxo-1,2-dihydropyridin-3-yl)amino)-N-((1S,3S)-3-methoxycyclopentyl)-7-(methylamino)pyrazolo[1,5-a]pyrimidine-3-carboxamide] was tested. Which Kd did it give?
Its Kd is greater than 10 nM.

Which Kd does the source give for `CNc1cc(-c2cn([C@H]3COC[C@@H]3O)c3ncccc23)nc2c(C(=O)N[C@@H]3C[C@@H]3F)cnn12` [Compound I-501] here?
Its Kd is less than 0.2 nM.
